Laboratory results as given in the NIST ThermoML archive (doi:10.1016/j.fluid.2007.05.013).
Numbers after ± are expanded uncertainties.

Conditions: Liquid; for mass density: 298.15 K, 101.33 kPa

Compound | mass density [kg/m3] | other results
C1COCO1 [1,3-dioxolane] | 1059 ± 0.9 | vapor or sublimation pressure (348.8 K): 101.33 ± 2 kPa
C1CCOC1 [tetrahydrofuran] | 882 ± 0.5 | vapor or sublimation pressure (339.12 K): 101.33 ± 2 kPa
C1COCCO1 [1,4-dioxane] | 1027.9 ± 0.7 | vapor or sublimation pressure (374.47 K): 101.33 ± 2 kPa
CCCCCCCl [1-chlorohexane] | 873.5 ± 1 | vapor or sublimation pressure (408.07 K): 101.33 ± 2 kPa
C1CCOCC1 [tetrahydropyran] | 878.8 ± 1 | vapor or sublimation pressure (361.23 K): 101.33 ± 2 kPa
